Measured values taken from patent publication US6815208B2, “Chemical treatment for hydrostatic test” (Champion Technologies, Inc., priority 2001, dated 2004).
Where two headings read alike, the source gives them in different places.

Experiments:
[1] = tested on: Sulfate Reducing Bacteria (SRB); test: Evaluation of biocides in pH adjusted medium containing SRB, with coupons; format: cell-based; settings: for Log of Bacterial Cells/ml: SRB medium
Description: (§1) In these experiments, SRB or FAAPB cultures were treated with various concentrations of biocides, after raising the pH to 9.8-10.00. The bacterial growth in the treated samples was estimated by the serial dilution method. The visual appearance of coupons in treated and untreated samples was recorded. An aldehyde and phosphonium quat were used for biocides.

SRB [2] = test: Time kill study of special blends, SRB culture; format: cell-based; settings: 50 PPM (pH ~7)
Description: (§2) More than thirty special blends containing NaOH, oxygen scavenger and scale inhibitor were made. Time kill studies were conducted to evaluate the effect of these special blends on bacterial growth. For the time kill studies cultures of SRB and anaerobic bacteria as well as filtered Galveston seawater were used. Galveston seawater was filtered through 50 μm filter. The time kill studies were basically the same as in the raised pH studies described earlier. The only difference was that in these studies, the pH was raised by the special blends and natural seawater was included in addition to bacterial cultures. Usually, 1,500 to 3,000 PPM of the special blends were used to raise the pH to 9.6-9.8. In some experiments, the seawater was treated only with NaOH or oxygen scavenger for comparison purposes. A piece of mild carbon steel coupon (1″×0.3″) was inserted into the treated water to monitor MIC and corrosion in all of the experiments.
(§3) The bacterial growth was monitored for 20 days. The monitoring of coupons in the treated samples continued for weeks to months. The products that inhibited the bacterial growth and kept the coupons clean were selected. These selected products were re-evaluated using the bacterial cultures and the filtered seawater.

anaerobic bacteria = test: Time kill study of special blends, anaerobic bacteria culture; format: cell-based; settings: 50 PPM (pH ~7)
Description: as §2, §3

SRB [3] = test: Effect of special blends on SRB growth in natural (Galveston) seawater; format: cell-based; settings: 25 PPM
Description: as §2, §3

[4] = Deactivation of biocides / biocide residual in Galveston seawater; format: physicochemical
Description: The pH of fresh water or seawater was adjusted and desired concentrations of biocides were added. The concentration of biocides in the water was measured periodically. Such monitoring provided information on the deactivation rate of biocides. To monitor the concentration of THPS and glutaraldehyde a LaMotte kit and a Glutatect kit were used, respectively. The LaMotte Company supplies the LaMotte kit. Alden Scientific manufactures the Glutatect kit. After the complete deactivation of biocide, the water was tested for aquatic toxicity.
Galveston seawater was treated with NaOH solution and with blends of NaOH and chemicals separately to raise the pH to 9-10.25. 12-100 PPM of 50% glutaraldehyde was added to each aliquot of pH-adjusted water. The treated water was left at room temperature. The concentration of glutaraldehyde was monitored for 9-20 days, using Glutatect kit. In another experiment, 100 PPM of 75% THPS was added to Galveston seawater following pH adjustment with NaOH. THPS concentration was monitored using a LaMotte Kit.

[5] = tested on: sulfate reducting bacteria (SRB); test: Time kill study of SRB cultures at raised pH (NaOH), serial dilution; format: cell-based; settings: 200 PPM, combined with high pH
Description: Cultures (in API media) of sulfate reducting bacteria (SRB) and facultative anaerobic acid producing bacteria (FAAPB) were treated separately with dilute NaOH solution to raise the pH of the culture to 9.8-10.00. The level of bacterial growth was estimated by the serial dilution method. In some experiments oxygen scavenger (ammonium bisulfite) was also included to see if it has any effect on bacterial growth. No coupons were used in these experiments.
as §1

M. Bahia = test: Static renewal toxicity test of treated seawater; format: in vivo; settings: 150 PPM of THPS
Description: (§4) Three of the most promising special blends were tested 249C, 246C, and 283C. Galveston seawater was treated separately with 249C, 246C and 283C at 3,000 PPM, 2,000 PPM and 1,450 PPM respectively. The treated water was then subjected to a static renewal toxicity test (using Mysid and Menidid species). The EPA requires this toxicity test for water discharged into the Gulf of Mexico.

M. Beryllina = test: Static renewal toxicity test of treated seawater; format: in vivo; settings: 150 PPM of THPS
Description: as §4

[6] = anaerobic condition, cited from earlier work
[7] = Sea Water without pH adjustment, 100 PPM added

| Compound | Log of Bacterial Cells/ml, SRB (SRB [2]) | Log of Bacterial Cells/ml, Anaerobic (anaerobic bacteria) | Log of Bacterial Cells/ml (SRB [3]) | PPM Biocide after 9 Days ([4]; Sea Water pH 10, 100 PPM added) | PPM Biocide at 0 Hr ([4]; Sea Water pH 10, 100 PPM added) | PPM Biocide, 2 Days ([4]; Sea Water pH 10, 100 PPM added) | PPM Biocide after 9 Days [4, 7] | PPM Biocide at 0 Hr [4, 7] | PPM Biocide, 2 Days [4, 7] | further results |
| --- | --- | --- | --- | --- | --- | --- | --- | --- | --- | --- |
| O=CCCCC=O [Glutaraldehyde, glutaraldehyde] | 0-1 Log of Bacterial Cells/ml | ≧3 Log of Bacterial Cells/ml | 1 Log of Bacterial Cells/ml | 10-20 PPM | ˜40 PPM | 20-40 PPM | 20-40 PPM | ˜40 PPM | 20-40 PPM | Log of Bacterial Cells/ml ([1]; Concentration 12.5): 0 Log of Bacterial Cells/ml; Log of Bacterial Cells/ml ([1]; Concentration 25): 0-1 Log of Bacterial Cells/ml; Log of Bacterial Cells/ml ([1]; Concentration 75): 0 Log of Bacterial Cells/ml; Log of Bacterial Cells/ml ([1]; Concentration 150): 0 Log of Bacterial Cells/ml; concentration sufficient to inhibit planktonic as well as sessile bacterial growths ([1]; water with pH adjusted to 10): 10-12 PPM; biocide residual ([4]; seawater treated with special blends, after 5-10 days): below 5 PPM |
| N.O=S(O)O [NH4HSO3, ammonium bisulfite] |  |  |  |  |  |  |  |  |  | Log of SRB Cells/mL ([5]; Experiment 1 (7 Days)): 2 Log of SRB Cells/mL; Log of SRB Cells/mL ([5]; Experiment 2 (7 Days)): 2 Log of SRB Cells/mL |
| tetrakis hydroxymethyl phosphonium sulfate [THPS] | 0-1 Log of Bacterial Cells/ml | ≧3 Log of Bacterial Cells/ml | 1 Log of Bacterial Cells/ml | 14 PPM | 136 PPM | 58 PPM | 68 PPM | 132 PPM | 104 PPM | Log of Bacterial Cells/ml ([1]; Concentration 18.75): 0-3 Log of Bacterial Cells/ml; Log of Bacterial Cells/ml ([1]; Concentration 37.5): 0-1 Log of Bacterial Cells/ml; Log of Bacterial Cells/ml ([1]; Concentration 112.5): 0 Log of Bacterial Cells/ml; LOEC (M. Bahia): <9.6/9.6%; NOEC (M. Bahia): <9.6/9.6%; LOEC (M. Beryllina): 24.6%; NOEC (M. Beryllina): 12.0%; half life ([6]; pH 7): 72 days; half life ([6]; pH 9): 7 days |
